According to publication PMC7508748, “Active tyrosine phenol-lyase aggregates induced by terminally attached functional peptides in Escherichia coli” (Journal of Industrial Microbiology & Biotechnology, 2020):

Legend:
Assay in all cases: Lineweaver-Burk, initial rates
Type in all cases: biochemical
Settings in all cases: 20 °C, PLP 30 µM, 0.1-6 mM L-DOPA
TPL-ELP10 = test system: TPL-ELP10
TPL-GFIL16 = test system: TPL-GFIL16
TPL = test system: T1, TPL
T1 construct: 6xHis tag kept, pET28a, E. coli BL21(DE3) host, His-Trap purified; 52 kDa; tetramer

TPL-EAK16 = test system: TPL-EAK16
TPL-DKL6 = test system: TPL-DKL6
TPL-18A = test system: TPL-18A
Excerpt: Lineweaver-Burk, initial rates on TPL-18A | The Vmax of TPL-DKL6, TPL-ELP10, TPL-EAK16, TPL-18A, and TPL-GFIL16 was higher

Km (TPL-ELP10): 2680 ± 129 µM
Km (TPL-GFIL16): 2220 ± 14 µM
Km (TPL): 2190 µM
Km (TPL-EAK16): 2360 ± 26 µM
Km (TPL-DKL6): 2320 ± 504 µM
Km (TPL-18A): 2180 ± 356 µM
Compound: N[C@@H](Cc1ccc(O)c(O)c1)C(=O)O [L-DOPA]
